Data from patent publication US12077503B2, “Substituted cyclic amides and their use as herbicides” (FMC CORPORATION, priority 2015, dated 2024).

Tests used:
Assay type in all cases: in vivo
[1] = test system: ryegrass, Italian (Italian ryegrass, Lolium multiflorum); experiment: Test A preemergence; conditions: Lolium multiflorum, pre-emergence, 240 h, Preemergence
Method in brief: (§1)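 Treatment is preemergence as a directed soil spray after planting, or postemergence at the one- to two-leaf stage, with test chemical in a non-phytotoxic solvent mixture plus surfactant. Plants stay in the greenhouse about 10 d before visual injury scoring on a 0 to 100 scale versus untreated controls.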

[2] = test system: pigweed (Amaranthus retroflexus); experiment: Test A preemergence; conditions: Amaranthus retroflexus, pre-emergence, 240 h, Preemergence
[3] = test system: barnyardgrass (Echinochloa crus-galli); experiment: Test A preemergence; conditions: Echinochloa crus-galli, pre-emergence, 240 h, Preemergence
Method in brief: as §1

[4] = test system: ragweed (common ragweed, Ambrosia elatior); experiment: Test A preemergence; conditions: Ambrosia artemisiifolia, pre-emergence, 240 h, Preemergence
Method in brief: as §1

Kochia (Kochia scoparia) [5] = experiment: Test A preemergence; conditions: Bassia scoparia, pre-emergence, 240 h, Preemergence
Method in brief: as §1

[6] = test system: Galium (catchweed bedstraw, Galium aparine); experiment: Test A postemergence; conditions: Galium, post-emergence, 240 h, Postemergence, read-out: Plant response rating, Galium
Method in brief: as §1

[7] = test system: ryegrass, Italian (Italian ryegrass, Lolium multiflorum); experiment: Test A postemergence; conditions: Lolium multiflorum, post-emergence, 240 h, Postemergence, read-out: Plant response rating, Ryegrass, Italian
Method in brief: as §1

[8] = test system: pigweed (Amaranthus retroflexus); experiment: Test A postemergence; conditions: Amaranthus retroflexus, post-emergence, 240 h, Postemergence, read-out: Plant response rating, Pigweed
Method in brief: as §1

corn (Zea mays) = experiment: Test A postemergence; conditions: Zea mays, post-emergence, 240 h, Postemergence
Method in brief: as §1

[9] = test system: barnyardgrass (Echinochloa crus-galli); experiment: Test A postemergence; conditions: Echinochloa crus-galli, post-emergence, 240 h, Postemergence, read-out: Plant response rating, Barnyardgrass
Method in brief: as §1

[10] = test system: blackgrass (Alopecurus myosuroides); experiment: Test A postemergence; conditions: Alopecurus myosuroides, post-emergence, 240 h, Postemergence, read-out: Plant response rating, Blackgrass
Method in brief: as §1

[11] = test system: ragweed (common ragweed, Ambrosia elatior); experiment: Test A postemergence; conditions: Ambrosia artemisiifolia, post-emergence, 240 h, Postemergence, read-out: Plant response rating, Ragweed
Method in brief: as §1

[12] = test system: wheat (Triticum aestivum); experiment: Test A postemergence; conditions: Triticum aestivum, post-emergence, 240 h, Postemergence, read-out: Plant response rating, Wheat
Method in brief: as §1

[13] = test system: giant foxtail (Setaria faberii); experiment: Test A postemergence; conditions: Setaria faberi, post-emergence, 240 h, Postemergence, read-out: Plant response rating, Foxtail, Giant
Method in brief: as §1

Kochia (Kochia scoparia) [14] = experiment: Test A postemergence; conditions: Bassia scoparia, post-emergence, 240 h, Postemergence, read-out: Plant response rating, Kochia
Method in brief: as §1

[15] = 125 g ai/ha, visual injury after approximately 10 d, 0 to 100 scale where 0 is no effect and 100 is complete control
[16] = 31 g ai/ha, visual injury after approx. 10 d, 0 to 100 scale, 0 no effect, 100 complete control

CCOc1cc([C@H]2CN(C)C(=O)[C@@H]2C(=O)Nc2cccc(F)c2F)cc(C(F)(F)F)c1 [Compound 971]
20%: pest or weed control at 125 g/ha ([2]; 125 g ai/ha, visual injury rating after approximately 10 d, read-out: Pigweed plant response rating (0 to 100 scale, 0 is no effect, 100 is complete control)) | pest or weed control at 31 g/ha ([2]; 31 g ai/ha, 0 to 100 scale (0 no effect, 100 complete control), read-out: Plant response rating, Pigweed) | pest or weed control at 125 g/ha ([4]; 125 g ai/ha, visual injury rating after approximately 10 d, read-out: Ragweed plant response rating (0 to 100 scale, 0 is no effect, 100 is complete control)) | pest or weed control at 31 g/ha [6, 16] | pest or weed control at 31 g/ha [7, 16] | pest or weed control at 31 g/ha [8, 16] | pest or weed control at 31 g/ha (Kochia (Kochia scoparia) [14]; [16])
0%: pest or weed control at 31 g/ha ([4]; 31 g ai/ha, 0 to 100 scale (0 no effect, 100 complete control), read-out: Plant response rating, Ragweed) | pest or weed control at 125 g/ha (Kochia (Kochia scoparia) [5]; 125 g ai/ha, visual injury rating after approximately 10 d, read-out: Kochia plant response rating (0 to 100 scale, 0 is no effect, 100 is complete control)) | pest or weed control at 31 g/ha (Kochia (Kochia scoparia) [5]; 31 g ai/ha, 0 to 100 scale (0 no effect, 100 complete control), read-out: Plant response rating, Kochia) | pest or weed control at 125 g/ha [11, 15] | pest or weed control at 31 g/ha [11, 16]
90%: pest or weed control at 125 g/ha ([3]; 125 g ai/ha, visual injury rating after approximately 10 d, read-out: Barnyardgrass plant response rating (0 to 100 scale, 0 is no effect, 100 is complete control))
40%: pest or weed control at 125 g/ha [6, 15] | pest or weed control at 31 g/ha [10, 16] | pest or weed control at 125 g/ha (Kochia (Kochia scoparia) [14]; [15])
80%: pest or weed control at 125 g/ha ([1]; 125 g ai/ha, visual injury rating after approximately 10 d, read-out: Ryegrass, Italian plant response rating (0 to 100 scale, 0 is no effect, 100 is complete control)) | pest or weed control at 125 g/ha [9, 15] | pest or weed control at 125 g/ha [13, 15] | pest or weed control at 31 g/ha [13, 16]
70%: pest or weed control at 31 g/ha ([3]; 31 g ai/ha, 0 to 100 scale (0 no effect, 100 complete control), read-out: Plant response rating, Barnyardgrass) | Corn plant response rating (crop injury, 0 = no effect, 100 = complete kill) at 125 g/ha (corn (Zea mays); [15]) | Corn plant response rating (crop injury, 0 = no effect, 100 = complete kill) at 31 g/ha (corn (Zea mays); [16])
30%: plant injury at 31 g/ha [12, 16]
50%: pest or weed control at 31 g/ha ([1]; 31 g ai/ha, 0 to 100 scale (0 no effect, 100 complete control), read-out: Plant response rating, Ryegrass, Italian) | pest or weed control at 125 g/ha [7, 15] | pest or weed control at 125 g/ha [8, 15] | pest or weed control at 31 g/ha [9, 16] | pest or weed control at 125 g/ha [10, 15] | plant injury at 125 g/ha [12, 15]
